Assay results reported in patent US4252788A, “Dental composition for preventing and inhibiting dental caries” (Toyo Seiyaku Kasei Co., Ltd., priority 1979, dated 1981).

What was measured:
[1] = Ability to inhibit decalcification of the hard tissue (dissolved calcium from human dentin powder in acid solution)
Description: The ability to inhibit decalcification of the hard tissue was estimated according to the method described in Nishino. Osaka University Shigaku Zasshi, Vol. 14, page 1 (1969). That is, firstly, a certain amount of human dentin powder was treated with a composition (aqueous solution of a molybdate compound) to be tested for certain minutes and then unbonded excess components were removed by washing with water to obtain a sample powder. Then, the sample powder was treated with an acid solution (decalcification) and the amount of calcium in the solution, which was dissolved in the solution by action of the acid, was determined (sample calcium content). Similarly, untreated dentin powder was added to an acid solution and the amount of calcium in the acid solution was determined (control calcium content). From these values, a inhibition rate of decalcification was calculated as follows: [formula]

[2] = In vivo inhibition of dental caries in rats on cariogenic diet inoculated with Streptococcus mutans; parameters: species or system Male Sprague-Dawley rats; conditions: for Average caries score (± S.E.), Dm (moderate dental caries) / Average caries score (± S.E.), Ds (slight dental caries) / Average caries score (± S.E.), Dx (extensive dental caries) / Inhibition rate of dental caries, Dm (moderate dental caries) / Inhibition rate of dental caries, Ds (slight dental caries) / Inhibition rate of dental caries, Dx (extensive dental caries): 8 weeks
Description: Further, the ability of the composition of the present invention to inhibit dental caries was tested in vivo as follows:
45 Male Sprague-Dawley rats (18 days old) were divided into three groups (15 rats/group). These rats were kept with the following cariogenic diet and deionized water during the test period (8 weeks).
0.2 ml of a culture broth, which was prepared by anaerobic cultivation of Streptococcus mutans in brain-heart-infusion broth at 37° C. for 24 hours, was orally administered to each rat once a day for 5 days. On the first, 7th, 14th, 21st, 28th and 35th days of the test period, 10% solution of (NH4)2 MoO2 F4 in deionized water (pH 7.5) was applied twice to mandibular molar of each rat of the first group with a cotton applicator and dried for 5 minutes. Likewise, 2% solution of NaF in deionized water (pH 3.6) was applied to each rat of the second group. As a control, mere deionized water was also applied to each rat of the third group. After 8 weeks, rats were sacrificed and mandibula of each rat was isolated and autoclaved at 121° C. for 5 minutes to remove gingiva and the like attached thereto. After drying, the severity of dental caries of each isolated mandibular molar was estimated with a caries score according to the method described in P. H. Keyes, J. Dent. Res., […], 1088-1099 (1958). In Tables 3 and 4, symbols of the severity of dental caries mean as follows:
Dm: moderate dental caries (dental caries extends to a quarter to three quarters part between enamel and dental pulp); and
Dx: extensive dental caries (dental caries extends to more than three quarters part between enamel and dental pulp).
The inhibition rate of dental caries is calculated as follows: [formula]

mice = assay: LD50 in mice; format: in vivo
Excerpt: Further, the dental composition of the present invention is useful from a viewpoint of toxicity since the molybdate compounds used in the present invention have toxicity as low as that of other medicaments commonly used for inhibition of dental caries.

[3] = tested on: protease (collagenase or trypsin); assay: Ability to inhibit digestion of the soft tissue (human decalcified dentin powder in opaque agar plate, clear zone with protease); format: biochemical; conditions: sodium fluoride
Description: The ability to inhibit digestion of the soft tissue was estimated according to the method described in Yanagida et al, Shonishikagaku Zasshi, Vol. 9, page 39 (1971). That is, various molybdate compounds (Na2 MoO2 F4, K2 MoO2 F4, (NH4)2 MoO2 F4, Na2 MoO4 or K2 MoO4) were dissolved in deionized water in various concentrations to obtain various compositions to be tested. A certain amount of human decalcified dentin powder was treated with each of the above prepared compositions for certain minutes and then unbonded excess components were removed by dialysis to obtain a sample powder. Then, an opaque agar plate was prepared from a mixture of agar and the sample powder, and a protease (collagenase or trypsin) was added to the plate. The inhibiting ability was estimated by observing whether a clear zone was formed on the plate or not (the clear zone is formed by dissolution of the powder with the enzyme, and the formation thereof means digestion of the soft tissue).

[4] = 0.5 hr decalcification, Mo 4%, pH 7
[5] = 1 hr decalcification, Mo 4%, pH 7
[6] = 3 hrs decalcification, Mo 4%, pH 7
[7] = 5 hrs decalcification, Mo 4%, pH 7
[8] = 1st group, 10% solution, pH 7.5
[9] = 0.5 hr decalcification, Mo 1%, pH 3
[10] = 0.5 hr decalcification, Mo 1%, pH 5
[11] = 1 hr decalcification, Mo 1%, pH 3
[12] = 1 hr decalcification, Mo 1%, pH 5
[13] = 3 hrs decalcification, Mo 1%, pH 3
[14] = 3 hrs decalcification, Mo 1%, pH 5
[15] = 5 hrs decalcification, Mo 1%, pH 3
[16] = 5 hrs decalcification, Mo 1%, pH 5

Compound	Inhibition rate of decalcification [1, 4] [%]	Inhibition rate of decalcification [1, 5] [%]	Inhibition rate of decalcification [1, 6] [%]	Inhibition rate of decalcification [1, 7] [%]	Inhibition rate of decalcification [1, 9] [%]	Inhibition rate of decalcification [1, 10] [%]	Inhibition rate of decalcification [1, 11] [%]	Inhibition rate of decalcification [1, 12] [%]	Inhibition rate of decalcification [1, 13] [%]	Inhibition rate of decalcification [1, 14] [%]	Inhibition rate of decalcification [1, 15] [%]	Inhibition rate of decalcification [1, 16] [%]	also measured
[K+].[K+].[O]=[Mo](=[O])([O-])[O-] [K2 MoO4, potassium orthomolybdate]	36.30	38.64	43.55	36.24									Inhibition rate of decalcification ([1]; 0.5 hr decalcification, Mo 4%, pH 3): 30.80%; Inhibition rate of decalcification ([1]; 1 hr decalcification, Mo 4%, pH 3): 33.33%; Inhibition rate of decalcification ([1]; 3 hrs decalcification, Mo 4%, pH 3): 35.42%; Inhibition rate of decalcification ([1]; 5 hrs decalcification, Mo 4%, pH 3): 34.52%
[NH4+].[NH4+].[O]=[Mo-2](=[O])([F])([F])([F])[F] [(NH4)2 MoO2 F4, ammonium dioxotetrafluoromolybdate]					44.43	44.43	34.60	45.45	36.47	42.39	37.27	43.12	Average caries score (± S.E.), Dm (moderate dental caries) [2, 8]: 0.7 ± 0.2; Average caries score (± S.E.), Ds (slight dental caries) [2, 8]: 3.9 ± 0.6; Average caries score (± S.E.), Dx (extensive dental caries) [2, 8]: 0.2 ± 0.2; Inhibition rate of dental caries, Dm (moderate dental caries) [2, 8]: 82.9%; Inhibition rate of dental caries, Ds (slight dental caries) [2, 8]: 54.7%; Inhibition rate of dental caries, Dx (extensive dental caries) [2, 8]: 93.8%; Dental caries inhibitory effect (in words) ([2]; Tables 3 and 4): excellent dental caries inhibitory effect; Inhibition rate of dental caries compared with NaF (in words) ([2]; at any severity): extremely superior to that of the composition containing NaF; Inhibition of moderate and extensive dental caries (in words) ([2]; scores of Dm and Dx in Table 3): moderate and extensive dental caries are almost inhibited; LD50 (p.o.) (mice): 124 mg/kg
O.O=P(O)(O)O.[O]=[Mo](=[O])=[O].[O]=[Mo](=[O])=[O].[O]=[Mo](=[O])=[O].[O]=[Mo](=[O])=[O].[O]=[Mo](=[O])=[O].[O]=[Mo](=[O])=[O].[O]=[Mo](=[O])=[O].[O]=[Mo](=[O])=[O].[O]=[Mo](=[O])=[O].[O]=[Mo](=[O])=[O].[O]=[Mo](=[O])=[O].[O]=[Mo](=[O])=[O] [P2 O5 . 24MoO3, phosphomolybdic acid]	45.22	44.82	47.39	44.61	58.32		52.02		54.24		43.12		
O=P([O-])([O-])[O-].[Na+].[Na+].[Na+].[O]=[Mo](=[O])=[O].[O]=[Mo](=[O])=[O].[O]=[Mo](=[O])=[O].[O]=[Mo](=[O])=[O].[O]=[Mo](=[O])=[O].[O]=[Mo](=[O])=[O].[O]=[Mo](=[O])=[O].[O]=[Mo](=[O])=[O].[O]=[Mo](=[O])=[O].[O]=[Mo](=[O])=[O].[O]=[Mo](=[O])=[O].[O]=[Mo](=[O])=[O] [Na3 PO4 . 12MoO3, sodium phosphorus molybdate]					42.20	49.90	42.42	33.21	41.11	30.78	40.94	30.85	
[Na+].[Na+].[O]=[Mo](=[O])([O-])[O-] [Na2 MoO4, sodium orthomolybdate]	44.04	42.17	33.80	35.42									Inhibition rate of decalcification ([1]; 0.5 hr decalcification, Mo 4%, pH 5): 45.61%; Inhibition rate of decalcification ([1]; 1 hr decalcification, Mo 4%, pH 5): 47.60%; Inhibition rate of decalcification ([1]; 3 hrs decalcification, Mo 4%, pH 5): 49.25%; Inhibition rate of decalcification ([1]; 5 hrs decalcification, Mo 4%, pH 5): 47.82%
[Na+].[Na+].[O]=[Mo-2](=[O])([F])([F])([F])[F] [Na2 MoO2 F4, sodium dioxotetrafluoromolybdate]					63.30	62.39	64.65	50.51	66.67	49.59	66.28	49.43	
[F-].[Na+] [NaF, sodium fluoride, reference compound]													Average caries score (± S.E.), Dm (moderate dental caries) ([2]; 2nd group, 2% solution, pH 3.6): 2.3 ± 0.5; Average caries score (± S.E.), Ds (slight dental caries) ([2]; 2nd group, 2% solution, pH 3.6): 6.9 ± 0.8; Average caries score (± S.E.), Dx (extensive dental caries) ([2]; 2nd group, 2% solution, pH 3.6): 1.1 ± 0.4; Inhibition rate of dental caries, Dm (moderate dental caries) ([2]; 2nd group, 2% solution, pH 3.6): 43.9%; Inhibition rate of dental caries, Ds (slight dental caries) ([2]; 2nd group, 2% solution, pH 3.6): 19.8%; Inhibition rate of dental caries, Dx (extensive dental caries) ([2]; 2nd group, 2% solution, pH 3.6): 65.6%; Inhibition of protease digestion (in words) [3]: does not inhibit protease digestion of the soft tissue; Inhibition of protease digestion (in words) ([3]; listed as sodium fluoride): no inhibition of protease digestion; Inhibition rate of decalcification ([1]; 0.5 hr decalcification, reference NaF 2%, pH 5): 43.91%; Inhibition rate of decalcification ([1]; 0.5 hr decalcification, reference NaF 2%, pH 7): 41.94%; Inhibition rate of decalcification ([1]; 1 hr decalcification, reference NaF 2%, pH 5): 40.66%; Inhibition rate of decalcification ([1]; 1 hr decalcification, reference NaF 2%, pH 7): 36.36%; Inhibition rate of decalcification ([1]; 3 hrs decalcification, reference NaF 2%, pH 5): 47.97%; Inhibition rate of decalcification ([1]; 3 hrs decalcification, reference NaF 2%, pH 7): 36.59%; Inhibition rate of decalcification ([1]; 5 hrs decalcification, reference NaF 2%, pH 5): 38.76%; Inhibition rate of decalcification ([1]; 5 hrs decalcification, reference NaF 2%, pH 7): 36.93%
